Measured values published in US10196606B2, “Method of producing multipotent stem cells” (FLINDERS UNIVERSITY OF SOUTH AUSTRALIA, priority 2011, dated 2019).

Experiments:
[1] = test system: human umbilical cord fibroblast (HUCF) cells; assay: Induction of ALP positive colonies from HUCF, single induction cycle; type: cell-based; details: one induction cycle, 7 days in NSC media
Description: At passage 17, HUCF cells were labelled with an anti-p75NTR antibody and underwent cell sorting for p75-NTR expression as described below, p75NTR-negative cells were used for all experiments of the induction by small molecules described below. Two hours before induction, p75-NTR^− HUCF were seeded at 1.4×10^5 per 35 mm tissue culture dishes coated with poly-D-lysine. On Day 1, the cells were induced in human induced pluripotent stem cell culture medium (HIPS) (DMEM/F12 supplemented with 25% KSR (Invitrogen), 1% non-essential amino acids (Invitrogen), 1% L-glutamine (Invitrogen), 50 units ml-1 penicillin, 50 μg ml-1 streptomycin, 10 ng ml-1 bFGF, and 0.1 mM β-mercaptoethanol (Invitrogen)) containing various combinations of small molecules as described below. The small molecules were used at the following concentrations: 0.5 μM PD0325901, 0.5 μM PD184352 (Millipore Merck), 72 nM U0216 (Millipore Merck), 0.4 μM RG108. […] 5-aza-2′-deoxycytidine (Millipore Merck) and 1 μM BIX01294. On day 2, the media was replaced with stem cell media (SCM) in the absence of small molecules as described in Example 1, except where indicated, the media was HIPS media in the absence of small molecules. On day 4, the cells were dissociated using 1 ml (1×) Tryple-E enzyme (Invitrogen) and seeded on 35 mm Petri dish with Neural Stem Cell (NSC) media (Neurobasal Medium (Invitrogen) supplemented with 10 ng/m bFGF and EGF with 50 units/ml penicillin, 50 μg/ml streptomycin). Colonies were maintained in NSC media for 7 days to induce neural stem cells unless stated otherwise.
Cells were induced with a combination of small molecules as described above and stained with ALP as described in Example 1, and examined using phase contrast microscopy.

[2] = test system: mouse adult tail-tip fibroblasts (TTF); assay: Induction of SMINS cells / ALP-positive neurospheres from TTF; type: cell-based
Description: (§1) Mouse embryonic fibroblasts (MEF) and mouse adult tail-tip fibroblasts (TTF) were isolated from C57/BL6 mice as described previously^2. Both cell types (ie MEF and TTF) were cultured in MEF medium (Dulbecco's Modified Eagle Medium (DMEM; Invitrogen Corporation, Carlsbad, Calif., United States of America) containing 10% Fetal Bovine Serum (FBS; Thermo Fisher Scientific, Waltham, Mass., United. States of America), 50 units/ml penicillin and 50 μg/ml streptomycin (Invitrogen)). Native NS cells were cultured from mouse brain at E12-E14 as positive controls in neural stem (NS) cell media.
(§2) 35 mm tissue culture dishes were coated with feeder cells (fibroblasts cultured from mouse embryo and seeded at 1.4×10^5 cells per 35 mm tissue culture dish) before induction. The MEF (passage 3) or TTF were seeded at 1.4×10^5 per 35 mm feeder cell-coated dish. The cells were induced in 6 cycles. […] The cells were then cultured in SCM in the absence of the small molecules for the next two days. Then, the cycle was repeated 5 times. Next, the cells were passaged and suspended in a drop of […] containing at least 50 cells for two days. Finally, the cells were cultured in the neural stem (NS) cell medium (DMEM/F12 (Invitrogen) supplemented with B-27 (1:50; Gibco Inc, Billings, Mont., United States of America), 50 units ml^−1 penicillin, 50 μg ml^−1 streptomycin, 8 mM HEPES buffer, 20 ng ml^−1 epidermal growth factor (EGF), 10 ng ml^−1 basic fibroblast growth factor (bFGF) for two weeks.
(§3) ES culture medium (also referred to as SCM herein) was added to NS and SMINS cells overnight. Alkaline phosphatase staining was carried out according to the manufacturer's protocol (Hoffman-La Roche, Basel, Switzerland). For the immunofluorescence staining, cells were washed with phosphate buffered saline (PBS) and then fixed with 4% paraformaldehyde for 10 min. After washing twice with PBS, the cells were permeabilised with 0.1% Triton X-100 for 20 min. Cells were then washed twice and blocked in blocking buffer (a solution of PBS containing 1% FBS and 4% bovine serum albumin (BSA)) for 1 hour. […]

[3] = test system: mouse embryonic fibroblasts (MEF); assay: Induction of SMINS cells / ALP-positive neurospheres from MEF, 6 induction cycles; type: cell-based; details: withdrawal of individual small molecules from the combination
Description: as §1, §2, §3

[4] = test system: human umbilical cord fibroblast (HUCF) cells; assay: RT-PCR of cells induced from HUCF; type: cell-based; details: immediately after induction, prior to culture in NSC media
Description: mRNA was extracted from cells induced using BIX01294 and RG108 in combination or BIX01294 alone. A cell lysate from SKSY5Y cells (a neuroblastoma cell line) was used as a positive control, and HUCF cells at passage 17 following p75-NTR negative selection was used as a negative control. RT-PCR was performed as described in Example 1 for expression of typical neural stem cell genes GFAP, Sox2, Olig2, Nestin, and pluripotent stem cell genes Oct4 and Nanog, and loading control gene GAPDH using the primers described in Example 1.

[5] = test system: human umbilical cord fibroblast (HUCF) cells; assay: Immunocytochemistry of cells induced from HUCF; type: cell-based
Description: Cells were induced with small molecules (BIX0124 alone or BIX0125 and RG108 in combination) as described above, with cells cultured in HIPS media at Days 2 and 3. Cells were cultured in NSC media for 0, 2 or 6 days as detailed below. Prior to immunofluorescence staining, cells were dissociated with Tryple-E enzyme as described above, and then incubated overnight at low density on poly-D-lysine coated coverslips in HIPS media prior to immunofluorescence staining.
Cells were then washed with PBS and then fixed with 4% paraformaldehyde for 10 min. After washing twice with PBS, cells were permeabilised with 0.1% Triton X-100 for 20 min. Cells were then washed twice and blocked in blocking buffer (a solution of PBS containing 1% FBS and 4% BSA) for 1 hour. Primary antibodies were diluted in blocking buffer in the following dilutions: anti-Sox2 (Millipore, 1:200, mouse), anti-SSEA-1 (Santa Cruz Biotechnology, 1:200, mouse), anti-glial fibrillary acidic protein (GFAP; Dako, 1:400, rabbit), anti-Map2 (Osenses, 1:1000, rabbit), anti-Olig2 (Osenses, 1:1000, rabbit), anti-Alpha-tubulin (Sigma, 1:1000, mouse), anti-neural/glial 2 (Abeam, 1:200), anti-nestin (DHSB, 1:1000), anti-Tuj1 Sigma, 1:300 and applied to the cells for 1 hour at room temperature or overnight at 4° C. Cells were washed three times with PBS and then secondary fluorescent antibodies (1:1000, Cy3 or Alexa-488) and counterstain with 10 μg/ml DAPI were applied for 1 hour at room temperature.
In one experiment, HUCF cells were induced as follows: At passage 17, HUCF cells were negatively selected for p75-NTR and then induced using BIX01294 alone in HIPS media for one day and HIPS media (no small molecules) for two days followed by culture in NSC media for 6 days. Meanwhile control HUCF cells at passage 17 were negatively selected for p75-NTR cells, and then passaged another 5 times. Cells were then stained with mouse anti-p75-NTR-FITC (Biosensis, 1:6, mouse) and counterstained with DAPI as described above.

ALK2 = biological target: T1, ALK2 (Homo sapiens, UniProt Q04771); details: cited from earlier work
T1 sequence (Q04771 21-509): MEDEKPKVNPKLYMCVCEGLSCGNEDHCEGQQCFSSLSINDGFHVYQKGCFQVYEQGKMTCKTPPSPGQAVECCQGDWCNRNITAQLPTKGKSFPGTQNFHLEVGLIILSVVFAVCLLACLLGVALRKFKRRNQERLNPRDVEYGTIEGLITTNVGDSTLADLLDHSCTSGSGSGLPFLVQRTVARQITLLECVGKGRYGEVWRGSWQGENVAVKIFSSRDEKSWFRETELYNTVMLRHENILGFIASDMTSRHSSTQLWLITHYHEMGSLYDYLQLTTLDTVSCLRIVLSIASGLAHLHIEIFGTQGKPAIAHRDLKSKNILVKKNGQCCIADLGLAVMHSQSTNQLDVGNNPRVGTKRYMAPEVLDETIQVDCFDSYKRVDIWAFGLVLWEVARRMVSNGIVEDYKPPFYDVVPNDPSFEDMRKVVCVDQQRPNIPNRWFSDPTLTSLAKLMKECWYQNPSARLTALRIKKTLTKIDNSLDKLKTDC

ALK3 = ALK3 (Homo sapiens, UniProt P36894); details: cited from earlier work
ALK4 = biological target: T2, ALK4 (Homo sapiens, UniProt P36896); details: cited from earlier work
T2 sequence (P36896 24-505): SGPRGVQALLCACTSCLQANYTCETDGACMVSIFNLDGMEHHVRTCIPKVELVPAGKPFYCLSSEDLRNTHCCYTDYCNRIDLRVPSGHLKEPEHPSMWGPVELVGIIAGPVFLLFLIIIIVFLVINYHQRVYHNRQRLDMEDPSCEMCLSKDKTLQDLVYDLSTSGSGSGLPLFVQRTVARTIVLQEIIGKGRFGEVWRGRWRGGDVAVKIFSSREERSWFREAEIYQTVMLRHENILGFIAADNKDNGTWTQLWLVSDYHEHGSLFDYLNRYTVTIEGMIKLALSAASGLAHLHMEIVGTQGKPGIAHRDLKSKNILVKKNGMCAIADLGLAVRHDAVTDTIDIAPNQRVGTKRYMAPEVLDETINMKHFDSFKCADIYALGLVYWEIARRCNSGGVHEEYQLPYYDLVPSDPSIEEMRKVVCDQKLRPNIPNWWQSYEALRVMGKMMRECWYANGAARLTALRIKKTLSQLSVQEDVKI

ALK1 = ALK1 (Homo sapiens, UniProt P37023); details: cited from earlier work
ALK6 = ALK6 (Homo sapiens, UniProt O00238); details: cited from earlier work
cell reprogramming = details: cited from earlier work

ALK6, sequence (O00238 14-502): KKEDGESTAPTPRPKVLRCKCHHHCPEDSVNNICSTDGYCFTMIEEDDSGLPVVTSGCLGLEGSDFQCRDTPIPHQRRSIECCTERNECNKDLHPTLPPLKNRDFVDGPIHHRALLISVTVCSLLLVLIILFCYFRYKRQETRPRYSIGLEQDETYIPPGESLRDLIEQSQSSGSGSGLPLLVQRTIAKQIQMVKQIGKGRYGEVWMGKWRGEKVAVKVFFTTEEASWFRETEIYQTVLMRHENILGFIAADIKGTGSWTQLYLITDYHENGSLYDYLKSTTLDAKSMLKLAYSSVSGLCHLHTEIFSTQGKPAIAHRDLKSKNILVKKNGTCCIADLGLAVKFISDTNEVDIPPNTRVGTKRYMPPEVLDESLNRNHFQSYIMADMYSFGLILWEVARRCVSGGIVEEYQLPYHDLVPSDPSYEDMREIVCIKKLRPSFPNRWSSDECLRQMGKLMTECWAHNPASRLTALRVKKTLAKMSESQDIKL
ALK3, sequence (P36894 24-532): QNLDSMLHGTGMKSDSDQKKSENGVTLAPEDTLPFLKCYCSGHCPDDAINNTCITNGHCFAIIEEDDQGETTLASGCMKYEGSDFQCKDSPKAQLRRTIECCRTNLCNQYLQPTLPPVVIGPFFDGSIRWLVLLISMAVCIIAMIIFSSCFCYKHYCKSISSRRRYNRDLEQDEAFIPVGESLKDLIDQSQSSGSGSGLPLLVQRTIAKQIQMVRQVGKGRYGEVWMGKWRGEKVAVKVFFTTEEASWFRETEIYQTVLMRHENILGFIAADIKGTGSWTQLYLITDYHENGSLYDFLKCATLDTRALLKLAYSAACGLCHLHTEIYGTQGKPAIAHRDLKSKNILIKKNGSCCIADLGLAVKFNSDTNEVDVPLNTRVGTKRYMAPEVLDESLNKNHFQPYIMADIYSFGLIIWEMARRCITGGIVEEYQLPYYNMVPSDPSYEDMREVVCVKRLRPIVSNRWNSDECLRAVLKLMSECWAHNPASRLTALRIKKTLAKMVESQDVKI
ALK1, sequence (P37023 22-503, species assumed): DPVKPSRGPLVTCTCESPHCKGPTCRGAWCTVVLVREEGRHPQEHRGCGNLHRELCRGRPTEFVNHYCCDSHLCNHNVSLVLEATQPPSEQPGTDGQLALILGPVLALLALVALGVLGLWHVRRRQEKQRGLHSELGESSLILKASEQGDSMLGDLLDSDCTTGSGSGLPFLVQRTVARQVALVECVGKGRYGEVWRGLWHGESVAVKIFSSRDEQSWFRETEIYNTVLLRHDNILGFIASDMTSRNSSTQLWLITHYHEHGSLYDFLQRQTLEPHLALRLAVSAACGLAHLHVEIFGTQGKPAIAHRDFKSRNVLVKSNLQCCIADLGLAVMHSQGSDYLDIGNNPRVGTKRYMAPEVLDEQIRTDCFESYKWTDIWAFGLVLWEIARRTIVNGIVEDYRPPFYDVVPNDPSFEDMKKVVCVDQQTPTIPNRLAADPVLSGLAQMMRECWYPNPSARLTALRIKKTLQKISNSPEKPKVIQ

Structure (SMILES): O=C(NOCC1CC1)c1ccc(F)c(F)c1Nc1ccc(I)cc1Cl [PD184352, 2-(2-chloro-4-iodo-phenylamino)-N-cyclopropylmethoxy-3,4-difluoro-benzamide]
- induction of ALP positive colonies from HUCF [1]: induced ALP positive colonies

Structure (SMILES): COc1cc2nc(N3CCCN(C)CC3)nc(NC3CCN(Cc4ccccc4)CC3)c2cc1OC.Cl.Cl.Cl.O [BIX01294, 2-(hexahydro-4-methyl-1H-1,4-diazepin-1-yl)-6,7-dimethoxy-N-[1-(phenylmethyl)-4-piperidinyl]-4-quinazolinamine trihydrochloride hydrate]
- ALP-positive neurosphere produced from TTF [2]: No
- essential for generation of SMINS-MEF cells [3]: required for the induction
- Sox2 expression (RT-PCR) [4]: expressed Sox2 immediately after induction
- expression of neural stem cell marker nestin ([5]; 6 days in NSC media): additionally express the neural stem cell marker nestin
- p75-NTR staining versus control p75-NTR negative HUCF ([5]; 6 days in NSC media): marked upregulation
- expression of NG2, Olig2, GFAP and Tuj1 ([5]; after culture in NSC media): some BIX01294 induced cells express
- expression of Sox2 and SSEA-1 (immunofluorescence) ([5]; culture in NSC media for 0 or 6 days): clearly expressed Sox2 and SSEA-1

Structure (SMILES): N#CC(=C(/N)Sc1ccccc1N)/C(C#N)=C(/N)Sc1ccccc1N [U0216]
- induction of ALP positive colonies from HUCF [1]: induced ALP positive colonies

Structure (SMILES): O=C(NOCC(O)CO)c1ccc(F)c(F)c1Nc1ccc(I)cc1F (centres unmarked) [PD325901, N-(2,3-dihydroxy-propoxy)-3,4-difluoro-2-(2-fluoro-4-iodo-phenylamino)-benzamide]
- ALP-positive neurosphere produced from TTF [2]: Yes
- essential for generation of SMINS-MEF cells [3]: required for the induction
- induction of ALP positive colonies from HUCF [1]: induced ALP positive colonies

Structure (SMILES): Cc1cccc(-c2nn(C(=S)Nc3ccccc3)cc2-c2ccnc3ccccc23)n1 [A83-01, 3-(6-Methyl-2-pyridinyl)-N-phenyl-4-(4-quinolinyl)-1H-pyrazole-1-carbothioamide]
- inhibition of ALK2 (ALK2): only weakly inhibits
- inhibition of ALK3 (ALK3): only weakly inhibits
- IC50 (ALK4): 12 nM
- inhibition of ALK1 (ALK1): only weakly inhibits
- inhibition of ALK6 (ALK6): only weakly inhibits

Structure (SMILES): O=C(O)[C@H](Cc1c[nH]c2ccccc12)N1C(=O)c2ccccc2C1=O [RG108, 1H-Indole-3-propanoic acid, α-(1,3-dihydro-1,3-dioxo-2H-isoindol-2-yl)-, (αS)—]
- ALP-positive neurosphere produced from TTF [2]: No
- essential for generation of SMINS-MEF cells [3]: required for the induction

Structure (SMILES): CCCC(CCC)C(=O)O [valproic acid]
- improvement of the efficiency of cell reprogramming by some induction processes (cell reprogramming): at least 100 fold
